This note sets out measurements from patent publication US8304419B2, “Chemical compounds” (priority 2007, dated 2012).

Structures can show the parent of a compound that is named as a salt.

In the first assay the test system is HIV wild type (WTRVA). The assay is described as follows: HeLa cell assay, wild type virus (WTRVA). Particulars: Human immunodeficiency virus 1, HeLa, HeLa cell assay; read-out: IC50 against WTRVA. Also on record: scale not given here. The assay is classed as cell-based, HIV-1.
`Cc1nc(Cl)c(C(=O)NCc2ccc(Cl)c(Oc3cc(C#N)cc(C4CC4)c3)c2F)[nH]1` [Example 308, 4-chloro-N-({4-chloro-3-[(3-cyano-5-cyclopropylphenyl)oxy]-2-fluorophenyl}methyl)-2-methyl-1H-imidazole-5-carboxamide trifluoroacetate]: the IC50 was less than 10 nM.

For `COc1cc(C#N)cc(Oc2c(Cl)ccc(CNC(=O)c3[nH]c(N)nc3Cl)c2F)c1` [Example 366, 2-amino-4-chloro-N-[(4-chloro-3-{[3-cyano-5-(methyloxy)phenyl]oxy}-2-fluorophenyl)methyl]-1H-imidazole-5-carboxamide trifluoroacetate], the IC50 was less than 10 nM. As for `C=C(C)c1cc(C#N)cc(Oc2c(Cl)ccc(CNC(=O)c3[nH]cnc3Cl)c2F)c1` [Example 158, 4-chloro-N-[(4-chloro-3-{[3-cyano-5-(1-methylethenyl)phenyl]oxy}-2-fluorophenyl)methyl]-1H-imidazole-5-carboxamide], the IC50 is less than 10 nM. Turning to `Cc1cc(C#N)cc(Oc2c(Cl)ccc(CNC(=O)c3[nH]c(C)nc3Cl)c2F)c1` [Example 305, 4-chloro-N-({4-chloro-3-[(3-cyano-5-methylphenyl)oxy]-2-fluorophenyl}methyl)-2-methyl-1H-imidazole-5-carboxamide trifluoroacetate], the IC50 was less than 10 nM. Turning to `CCc1cc(C#N)cc(Oc2c(Cl)ccc(CNC(=O)c3[nH]cnc3Cl)c2F)c1` [Example 148, 4-chloro-N-({4-chloro-3-[(3-cyano-5-ethylphenyl)oxy]-2-fluorophenyl}methyl)-1H-imidazole-5-carboxamide], the IC50 was less than 10 nM. Turning to `N#Cc1cc(Cl)cc(Oc2c(Br)ccc(CNC(=O)c3[nH]c(N)nc3Br)c2F)c1` [Example 237, 2-amino-4-bromo-N-({4-bromo-3-[(3-chloro-5-cyanophenyl)oxy]-2-fluorophenyl}methyl)-1H-imidazole-5-carboxamide trifluoroacetate], the IC50 is less than 10 nM.

For the compound `N#Cc1cc(Cl)cc(Oc2c(Cl)ccc(Cn3cnc4nc[nH]c4c3=O)c2F)c1` [Example 368, 3-chloro-5-({6-chloro-2-fluoro-3-[(6-oxo-6,7-dihydro-1H-purin-1-yl)methyl]phenyl}oxy)benzonitrile trifluoroacetate], the IC50 was less than 10 nM. On to `C=Cc1cc(C#N)cc(Oc2c(Cl)ccc(CNC(=O)c3[nH]c(C)nc3Cl)c2F)n1` [Example 272, 4-Chloro-N-({4-chloro-3-[(4-cyano-6-ethenyl-2-pyridinyl)oxy]-2-fluorophenyl}methyl)-2-methyl-1H-imidazole-5-carboxamide], for which the IC50 is less than 10 nM. Consider `CN(C)Cc1cc(C#N)cc(Oc2c(Cl)ccc(CNC(=O)c3[nH]cnc3Cl)c2F)c1` [Example 311, 4-chloro-N-{[4-chloro-3-({3-cyano-5-[(dimethylamino)methyl]phenyl}oxy)-2-fluorophenyl]methyl}-1H-imidazole-5-carboxamide trifluoroacetate], for which the IC50 is less than 10 nM.

The assay is the same for the next values; noted with them: Human immunodeficiency virus 1, HeLa, HeLa-CD4-LTR-β-gal cells, wild type virus; read-out: WTRVA activity level.
Take `COc1ccc2[nH]c(C(=O)NCc3ccc(Cl)c(Oc4cc(Cl)cc(C#N)c4)c3F)cc2c1` [Example 20, N-({4-chloro-3-[(3-chloro-5-cyanophenyl)oxy]-2-fluorophenyl}methyl)-5-(methyloxy)-1H-indole-2-carboxamide]: the IC50 lay in the range of 10 to 1000 nM. `N#Cc1cc(Cl)cc(Oc2c(Cl)ccc(CNC(=O)c3[nH]cnc3[N+](=O)[O-])c2F)c1` [Example 68, N-({4-chloro-3-[(3-chloro-5-cyanophenyl)oxy]-2-fluorophenyl}methyl)-4-nitro-1H-imidazole-5-carboxamide trifluoroacetate]: the IC50 was less than 10 nM. Regarding `CSc1nc(C(=O)NCc2ccc(Cl)c(Oc3cc(Cl)cc(C#N)c3)c2F)cn1C(c1ccccc1)(c1ccccc1)c1ccccc1` [Example 65, N-({4-chloro-3-[(3-chloro-5-cyanophenyl)oxy]-2-fluorophenyl}methyl)-2-(methylthio)-1-(triphenylmethyl)-1H-imidazole-4-carboxamide trifluoroacetate], the IC50 was in the range of 10 to 1000 nM. On to `CN(Cc1ccc(Cl)c(Oc2cc(Cl)cc(C#N)c2)c1F)C(=O)c1ccc[nH]1` [Example 129, N-({4-chloro-3-[(3-chloro-5-cyanophenyl)oxy]-2-fluorophenyl}methyl)-N-methyl-1H-pyrrole-2-carboxamide], for which the IC50 is less than 10 nM.

As for `N#Cc1cc(Cl)cc(Oc2c(Cl)ccc(CNC(=O)c3cc([N+](=O)[O-])c[nH]3)c2F)c1` [Example 70, N-({4-chloro-3-[(3-chloro-5-cyanophenyl)oxy]-2-fluorophenyl}methyl)-4-nitro-1H-pyrrole-2-carboxamide trifluoroacetate], the IC50 is less than 10 nM. Same read-out and setting: next, `N#Cc1cc(Cl)cc(Oc2c(Cl)ccc(CNC(=O)c3cc[nH]n3)c2F)c1` [Example 95, N-({4-chloro-3-[(3-chloro-5-cyanophenyl)oxy]-2-fluorophenyl}methyl)-1H-pyrazole-3-carboxamide]: 10 to 1000 nM. Regarding `COc1ccc(C(=O)NCc2ccc(Cl)c(Oc3cc(Cl)cc(C#N)c3)c2F)c(C)c1` [Example 17, N-({4-chloro-3-[(3-chloro-5-cyanophenyl)oxy]-2-fluorophenyl}methyl)-2-methyl-4-(methyloxy)benzamide], the IC50 was 10 to 1000 nM.

For `N#Cc1cc(Cl)cc(Oc2c(Cl)ccc(CNC(=O)c3cc4ccc(C#N)cc4[nH]3)c2F)c1` [Example 79, N-({4-chloro-3-[(3-chloro-5-cyanophenyl)oxy]-2-fluorophenyl}methyl)-6-cyano-1H-indole-2-carboxamide trifluoroacetate], the IC50 was less than 10 nM. In the case of `N#Cc1cc(Cl)cc(Oc2c(Cl)ccc(CNC(=O)c3c[nH]cn3)c2F)c1` [Example 84, N-({4-chloro-3-[(3-chloro-5-cyanophenyl)oxy]-2-fluorophenyl}methyl)-1H-imidazole-4-carboxamide trifluoroacetate], the IC50 was less than 10 nM. Take `Cc1c(C(=O)NCc2ccc(Cl)c(Oc3cc(Cl)cc(C#N)c3)c2F)[nH]c2ccccc12` [Example 39, N-({4-chloro-3-[(3-chloro-5-cyanophenyl)oxy]-2-fluorophenyl}methyl)-3-methyl-1H-indole-2-carboxamide]: the IC50 was less than 10 nM. `N#Cc1cc(Cl)cc(Oc2c(Cl)ccc(CNC(=O)c3csc(-c4cccnc4)n3)c2F)c1` [Example 98, N-({4-chloro-3-[(3-chloro-5-cyanophenyl)oxy]-2-fluorophenyl}methyl)-2-(3-pyridinyl)-1,3-thiazole-4-carboxamide trifluoroacetate]: the IC50 was less than 10 nM. `COC(=O)c1ccc(C(=O)NCc2ccc(Cl)c(Oc3cc(Cl)cc(C#N)c3)c2F)cc1` [Example 15, Methyl 4-{[({4-chloro-3-[(3-chloro-5-cyanophenyl)oxy]-2-fluorophenyl}methyl)amino]carbonyl}benzoate]: the IC50 was in the range of 10 to 1000 nM. In the case of `CC(=O)c1ccc2[nH]c(C(=O)NCc3ccc(Cl)c(Oc4cc(Cl)cc(C#N)c4)c3F)cc2c1` [Example 80, 5-acetyl-N-({4-chloro-3-[(3-chloro-5-cyanophenyl)oxy]-2-fluorophenyl}methyl)-1H-indole-2-carboxamide trifluoroacetate], the IC50 was less than 10 nM.

For the compound `CN(C)CCOc1ccc2[nH]c(C(=O)NCc3ccc(Cl)c(Oc4cc(Cl)cc(C#N)c4)c3F)cc2c1` [Example 105, N-({4-chloro-3-[(3-chloro-5-cyanophenyl)oxy]-2-fluorophenyl}methyl)-5-{[2-(dimethylamino)ethyl]oxy}-1H-indole-2-carboxamide], the IC50 is less than 10 nM.

For `N#Cc1cc(Cl)cc(Oc2c(Cl)ccc(CNC(=O)c3cc4cc(Cl)ccc4o3)c2F)c1` [Example 49, 5-chloro-N-({4-chloro-3-[(3-chloro-5-cyanophenyl)oxy]-2-fluorophenyl}methyl)-1-benzofuran-2-carboxamide trifluoroacetate], the IC50 is more than 1000 nM. For the compound `N#Cc1cc(Cl)cc(Oc2c(Cl)ccc(CNC(=O)c3cc4cccc(O)c4[nH]3)c2F)c1` [Example 32, N-({4-chloro-3-[(3-chloro-5-cyanophenyl)oxy]-2-fluorophenyl}methyl)-7-hydroxy-1H-indole-2-carboxamide], the IC50 is 10 to 1000 nM. On to `N#Cc1cc(Cl)cc(Oc2c(Cl)ccc(CNC(=O)c3cc4cccc(N)c4[nH]3)c2F)c1` [Example 113, 7-amino-N-({4-chloro-3-[(3-chloro-5-cyanophenyl)oxy]-2-fluorophenyl}methyl)-1H-indole-2-carboxamide], for which the IC50 was less than 10 nM. For `CS(=O)(=O)c1ccc(C(=O)NCc2ccc(Cl)c(Oc3cc(Cl)cc(C#N)c3)c2)c(Cl)c1` [Example 8, 2-chloro-N-({4-chloro-3-[(3-chloro-5-cyanophenyl)oxy]phenyl}methyl)-4-(methylsulfonyl)benzamide], the IC50 was 10 to 1000 nM. The same measure, in the same setting: next, `N#Cc1cc(Cl)cc(Oc2c(Cl)ccc(CNC(=O)c3[nH]c4cc(OCCO)ccc4c3Br)c2F)c1` [Example 141, 3-Bromo-N-({4-chloro-3-[(3-chloro-5-cyanophenyl)oxy]-2-fluorophenyl}methyl)-6-[(2-hydroxyethyl)oxy]-1H-indole-2-carboxamide]: less than 10 nM.
